Test results published in patent US20240294545A1 (CSPC Zhongqi Pharmaceutical Technology (Shijiazhuang) Co., …, priority 2020, published 2024).
Read-outs that look alike come from different tables or passages of the source. Marks after values point to notes of the source that are not given here.

How the values were obtained:
ATM = ATM (Homo sapiens (Human), UniProt Q13315); assay: Caliper mobility shift assay for ATM; assay type: biochemical; settings: read-out: IC50 of inhibitory activity on ATM kinase
Protocol: 1.2 Determination of the Inhibitory Activities of Compounds on ATM: Caliper Mobility Shift Assay for ATM
To a 96-well plate, 98 μL of DMSO and 2 μL of the 10 mM stock solution were added and mixed evenly so that the concentration of the solution was 200 μM.
Based on the inhibitory rates of the compound at different concentrations, IC50 was calculated according to the formula: Y=Bottom+(Top−Bottom)/(1+(IC50/X)^HillSlope).

[1] = system: subcutaneous xenograft tumor of human colon cancer cell line HT-29; assay: HT-29 subcutaneous xenograft, combined with irinotecan liposome injection; assay type: in vivo, NU/NU mice; settings: for inhibitory effect on tumor volume and tumor weight, in words: combined with irinotecan liposome injection, compared with AZD1390; for D 16 TGI / D 16 TV (MEAN ± SD) / Tumor weight / Tumor weight inhibitory rate: compound 25 mg/kg intragastric + irinotecan liposome 10 mg/kg ip; for D 16 TGI / D 16 TV (MEAN ± SD): day 16; for Tumor weight / Tumor weight inhibitory rate: end of test
Protocol: 7 Efficacy Test of the Compounds of the Present Disclosure Combined with Irinotecan Liposome Injection on Inhibiting the Growth of Subcutaneous Xenograft Tumor of Human Colon Cancer Cell Line HT-29
7.1 Experimental Animals: NU/NU Mice, SPF, Female, 20 to 30 g.
Irinotecan liposome injection (HE072), 43 mg: 10 mL, milky white liquid, batch No. B37191202, provided by Preparation Research Institute 2 from CSPC Zhongqi Pharmaceutical Technology (Shijiazhuang) Co., Ltd., diluted to an appropriate concentration with 5% glucose injection while testing.
HT-29 cell, provided by Nanjing Kebai Biotechnology Co., Ltd.; 5A culture medium:fetal bovine serum=90%:10%, 37° C., 5% CO2.
NU/NU nude mice were subcutaneously inoculated with HT-29 human colon cancer cells. When the mean tumor volume reached about 170 mm^3 (9 days after inoculation), the animals were evenly divided into groups according to the tumor volume (d0), with 6 mice in each group. 10 mg/kg of HE072 was administered intraperitoneally once a week for 1 time. Vehicle control, 25 mg/kg of A-6, 25 mg/kg of A-46, and 25 mg/kg of AZD1390 were administered intragastrically once a day, from Monday to Thursday every week except Friday to Sunday, for 1 week (4 times). The tumor volume was measured twice a week, the body weight of mouse was weighed every day, and the data were recorded. The tumor volume (TV) was calculated according to the formula: TV=½×a×b2, wherein a and b represent the long and short diameters of tumor, respectively. Tumor growth inhibitory rate TGI (%)=[1−(Ti−T0)/(Vi−V0)]×100, wherein Ti represents the mean tumor volume of a given treatment group on a certain day; TO represents the mean tumor volume of this treatment group at the beginning of administration; Vi represents the mean tumor volume of the vehicle control group on a certain day (the same day as that in Ti); V0 represents the mean tumor volume of the vehicle control group at the beginning of administration. At the end of the test (d17), the animals were sacrificed, the tumors were stripped and weighed, and the tumor weight inhibitory rates were calculated.

ATM-phosphorylated KAP1 = assay: Intracellular ATM-phosphorylated KAP1 level, ICW assay in MCF7 cells; assay type: cell-based, Human; settings: for IC50: MCF7 cells, 2 h compound, 10 Gy irradiation, further 1 h, read-out: pKAP1 IC50; for inhibitory effect on ATM KAP phosphorylation, in words: cellular level, compared with AZD1390 as positive control
Protocol: 4 Inhibition on Intracellular ATM-Phosphorylated KAP1 Level by the Compounds of the Present Disclosure: ICW Assay
• Cell: Human breast cancer cell line MCF7 • Materials and reagents:
4.2 Experimental Procedures
• (1) Cell inoculation • MCF7 cells were inoculated on a 384-well plate, 10000 cells/well (25 μL/well), and cultured overnight at 37° C. with 5% CO2. • (2) Activity detection • 1) The compound was formulated into a 100 mM solution with DMSO and then sequentially diluted with a gradient of 1:3 to yield a total of 10 concentration gradients, wherein the maximum concentration was 100 μM. • 2) 25 nL of each of the compound solutions with gradient concentrations prepared in step 1) was added to each well of the cell plate (Corning #356663) by using I-DOT One, resulting in a final concentration of 100 nM (maximum dose). • 3) The cell plate containing compound was incubated at 37° C. with 5% CO2 for 2 h. After 2 h, the cell plate was irradiated with a dose of 10 Gy, and then further incubated for 1 h. • 4) 25 μL of 8% paraformaldehyde was added to each well, followed by incubating at room temperature for 20 min. • 5) The 8% paraformaldehyde was discarded, followed by adding 0.1% TrintonX-100 and incubating at room temperature for 30 min. • 6) Odessey blocking buffer was added at 50 μL/well, followed by incubating at room temperature for 1.5 h. • 7) The Odessey blocking buffer was discarded, and then a primary antibody (Phospho-KAP1, 1:2000 dilution) was added, followed by incubating overnight at 4° C. • 8) The primary antibody was removed, followed by washing with PBS+0.1% Tween 20 for 5 times. • 9) DNA dye DRAQ5 coated with a second antibody (IRDye 800CW Goat anti-Rabbit, 1:4000 dilution) was added, followed by incubating at room temperature for 1 h. • 10) The second antibody was removed, followed by washing with PBS+0.1% Tween 20 for 5 times. • 11) PBS+0.1% Tween 20 was sucked off with Odyssey. • (3) Data analysis • 1) the relative ratio of Channel 800/Channel 700 for each well was detected. • 2) % of KAP1 phosphorylation was calculated according to the following formula:
% of KAP1 phosphorylation=[(Ratiocmpd−(Ratio)Positive)/((Ratio)Vehicle−(Ratio)Positive]*100 • (Ratio)Positive: the mean value of the test values of each positive control well in the test cell plate; • (Ratio)Vehicle: the mean value of the test values of each negative control well in the test cell plate. • 3) the IC50 of each compound was calculated and the dose-effect curve was plotted: % of KAP1 phosphorylation and log of compound's concentration were fit by using Graphpad 8.0 so as to calculate the IC50.
[formula] • X: log of compound's concentration • Y: % of KAP1 phosphorylation

[2] = system: subcutaneous xenograft tumor of human glioblastoma LN-18; assay: LN-18 subcutaneous xenograft, combined with radiotherapy; assay type: in vivo, NOG mice; settings: compound 5 mg/kg intragastric qd × 5 + IR 1 Gy, day 17
Protocol: 9 Efficacy Test of the Compounds of the Present Disclosure Combined with Radiotherapy on Inhibiting the Growth of Subcutaneous Xenograft Tumor of Human Glioblastoma LN-18
9.1 Experimental Animals: NOG Mice, SPF, Female, 18 to 22 g.
LN-18 tumor cells, DMEM medium:fetal bovine serum=95%:5%, accompanied by adding 100 U/mL penicillin and 100 μg/mL streptomycin, 37° C., 5% CO2.
LN18 tumor cells resuspended in serum-free DMEM medium were inoculated subcutaneously in the right costal region of experimental animals at 1.5*10^7/0.15 mL, and the animals were grouped when the tumor grew to 100 to 150 mm^3. Radiotherapy was performed 1 h after administration of compounds.
Tumor volume: The tumor volume was measured twice a week with a vernier caliper, and the long diameter and short diameter of tumor were measured. The tumor volume was calculated as follows: tumor volume (TV)=0.5×long diameter×short diameter^2. Tumor growth inhibitory rate (TGI %) was calculated according to the tumor volume. TVXn represents the mean tumor volume on day n of the treatment group, TVX0 represents the mean tumor volume on day 0 of the treatment group, TVMn represents the mean tumor volume on day n of the control group, and TVM0 represents the mean tumor volume on day 0 of the control group.

[3] = system: Human glioblastoma cell line LN-18; assay: LN18 cell proliferation combined with radiotherapy (CTG assay); assay type: cell-based; settings: for IC50: LN18 cells, 1 Gy irradiation 1 h after compound, 6 days, CTG; for inhibitory effect on LN18 cell proliferation, in words: combined with radiotherapy, compared with AZD1390 as positive control;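 on IC50: readout is CTG luminescence proliferation not KAP1 phosphorylation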
Protocol: 5 Test of the Inhibitory Activities of the Compounds of the Present Disclosure Combined with Radiotherapy on LN18 Cell Proliferation
• Cell: Human glioblastoma cell line LN-18
5.2 Experimental Procedures
• (1) Cell inoculation • 1) The cell culture fluid was preheated at 37° C. • 2) A complete culture medium of LN18 cells was prepared, at a ratio of DMEM medium:FBS=95:5 (V/V). • 3) Cells were digested with trypsin, collected to serve as a cell suspension, and counted, the cell suspension was then added into a 96-well plate at 1500 cells/well and 100 μL of cell fluid/well, and three parallel wells were set. • 4) After inoculated in the plate, the cells were cultured overnight under the condition of 37° C. and 5% CO2. • (2) Compound addition and incubation • 1) AZD1390 and tested compounds, respectively, were sequentially diluted 5 times with DMSO, starting from the concentration of 10 mM and yielding the concentrations of 10, 2, 0.4, 0.08, 0.016, 0.0032, 0.00064, 0.000128, and 0.0000256 mM in turn. The compound solutions at the above concentrations were diluted 5000 times with the complete culture medium. The final 2× concentrations were in order 2000, 400, 80, 16, 3.2, 0.64, 0.128, 0.0256, and 0.00512 nM. The vehicle control was 0.02% DMSO culture fluid. • 2) A complete culture medium containing 100 μL of the compound solution was added to each well, and the final concentrations of the compounds in the wells were in order 1000, 200, 40, 8, 1.6, 0.32, 0.064, 0.0128, and 0.00256 nM. The 0.01% DMSO culture fluid was contained in the vehicle control well. After incubated with compound for 1 h, the cells were irradiated at a dose of 1 Gy. • 3) After irradiation, the plate was put into an incubator and incubated under the condition of 37° C. and 5% CO2 for 6 days. Then detection was performed by adopting CTG assay (100 μL of liquid from each well was sucked out and discarded, and 50 μL of CTG reagent was added to each well, and incubated at room temperature for 30 min, and the luminescence intensity was detected). • (3) Data analysis • 1) The Luminescence signal (RLU) of each well was detected. • 2) Proliferation inhibitory activity was calculated according to the formula: % inhibitory activity=RLUtreatment/RLUAvg(Vehicle)*100. 5.3 the Inhibitory Activities of Compounds of the Present Disclosure Combined with Radiotherapy on LN18 Cell Proliferation

[4] = Homo sapiens, light or radiation study
[5] = Homo sapiens, LN-18, light or radiation study

Sequence of ATM (Q13315 whole entry): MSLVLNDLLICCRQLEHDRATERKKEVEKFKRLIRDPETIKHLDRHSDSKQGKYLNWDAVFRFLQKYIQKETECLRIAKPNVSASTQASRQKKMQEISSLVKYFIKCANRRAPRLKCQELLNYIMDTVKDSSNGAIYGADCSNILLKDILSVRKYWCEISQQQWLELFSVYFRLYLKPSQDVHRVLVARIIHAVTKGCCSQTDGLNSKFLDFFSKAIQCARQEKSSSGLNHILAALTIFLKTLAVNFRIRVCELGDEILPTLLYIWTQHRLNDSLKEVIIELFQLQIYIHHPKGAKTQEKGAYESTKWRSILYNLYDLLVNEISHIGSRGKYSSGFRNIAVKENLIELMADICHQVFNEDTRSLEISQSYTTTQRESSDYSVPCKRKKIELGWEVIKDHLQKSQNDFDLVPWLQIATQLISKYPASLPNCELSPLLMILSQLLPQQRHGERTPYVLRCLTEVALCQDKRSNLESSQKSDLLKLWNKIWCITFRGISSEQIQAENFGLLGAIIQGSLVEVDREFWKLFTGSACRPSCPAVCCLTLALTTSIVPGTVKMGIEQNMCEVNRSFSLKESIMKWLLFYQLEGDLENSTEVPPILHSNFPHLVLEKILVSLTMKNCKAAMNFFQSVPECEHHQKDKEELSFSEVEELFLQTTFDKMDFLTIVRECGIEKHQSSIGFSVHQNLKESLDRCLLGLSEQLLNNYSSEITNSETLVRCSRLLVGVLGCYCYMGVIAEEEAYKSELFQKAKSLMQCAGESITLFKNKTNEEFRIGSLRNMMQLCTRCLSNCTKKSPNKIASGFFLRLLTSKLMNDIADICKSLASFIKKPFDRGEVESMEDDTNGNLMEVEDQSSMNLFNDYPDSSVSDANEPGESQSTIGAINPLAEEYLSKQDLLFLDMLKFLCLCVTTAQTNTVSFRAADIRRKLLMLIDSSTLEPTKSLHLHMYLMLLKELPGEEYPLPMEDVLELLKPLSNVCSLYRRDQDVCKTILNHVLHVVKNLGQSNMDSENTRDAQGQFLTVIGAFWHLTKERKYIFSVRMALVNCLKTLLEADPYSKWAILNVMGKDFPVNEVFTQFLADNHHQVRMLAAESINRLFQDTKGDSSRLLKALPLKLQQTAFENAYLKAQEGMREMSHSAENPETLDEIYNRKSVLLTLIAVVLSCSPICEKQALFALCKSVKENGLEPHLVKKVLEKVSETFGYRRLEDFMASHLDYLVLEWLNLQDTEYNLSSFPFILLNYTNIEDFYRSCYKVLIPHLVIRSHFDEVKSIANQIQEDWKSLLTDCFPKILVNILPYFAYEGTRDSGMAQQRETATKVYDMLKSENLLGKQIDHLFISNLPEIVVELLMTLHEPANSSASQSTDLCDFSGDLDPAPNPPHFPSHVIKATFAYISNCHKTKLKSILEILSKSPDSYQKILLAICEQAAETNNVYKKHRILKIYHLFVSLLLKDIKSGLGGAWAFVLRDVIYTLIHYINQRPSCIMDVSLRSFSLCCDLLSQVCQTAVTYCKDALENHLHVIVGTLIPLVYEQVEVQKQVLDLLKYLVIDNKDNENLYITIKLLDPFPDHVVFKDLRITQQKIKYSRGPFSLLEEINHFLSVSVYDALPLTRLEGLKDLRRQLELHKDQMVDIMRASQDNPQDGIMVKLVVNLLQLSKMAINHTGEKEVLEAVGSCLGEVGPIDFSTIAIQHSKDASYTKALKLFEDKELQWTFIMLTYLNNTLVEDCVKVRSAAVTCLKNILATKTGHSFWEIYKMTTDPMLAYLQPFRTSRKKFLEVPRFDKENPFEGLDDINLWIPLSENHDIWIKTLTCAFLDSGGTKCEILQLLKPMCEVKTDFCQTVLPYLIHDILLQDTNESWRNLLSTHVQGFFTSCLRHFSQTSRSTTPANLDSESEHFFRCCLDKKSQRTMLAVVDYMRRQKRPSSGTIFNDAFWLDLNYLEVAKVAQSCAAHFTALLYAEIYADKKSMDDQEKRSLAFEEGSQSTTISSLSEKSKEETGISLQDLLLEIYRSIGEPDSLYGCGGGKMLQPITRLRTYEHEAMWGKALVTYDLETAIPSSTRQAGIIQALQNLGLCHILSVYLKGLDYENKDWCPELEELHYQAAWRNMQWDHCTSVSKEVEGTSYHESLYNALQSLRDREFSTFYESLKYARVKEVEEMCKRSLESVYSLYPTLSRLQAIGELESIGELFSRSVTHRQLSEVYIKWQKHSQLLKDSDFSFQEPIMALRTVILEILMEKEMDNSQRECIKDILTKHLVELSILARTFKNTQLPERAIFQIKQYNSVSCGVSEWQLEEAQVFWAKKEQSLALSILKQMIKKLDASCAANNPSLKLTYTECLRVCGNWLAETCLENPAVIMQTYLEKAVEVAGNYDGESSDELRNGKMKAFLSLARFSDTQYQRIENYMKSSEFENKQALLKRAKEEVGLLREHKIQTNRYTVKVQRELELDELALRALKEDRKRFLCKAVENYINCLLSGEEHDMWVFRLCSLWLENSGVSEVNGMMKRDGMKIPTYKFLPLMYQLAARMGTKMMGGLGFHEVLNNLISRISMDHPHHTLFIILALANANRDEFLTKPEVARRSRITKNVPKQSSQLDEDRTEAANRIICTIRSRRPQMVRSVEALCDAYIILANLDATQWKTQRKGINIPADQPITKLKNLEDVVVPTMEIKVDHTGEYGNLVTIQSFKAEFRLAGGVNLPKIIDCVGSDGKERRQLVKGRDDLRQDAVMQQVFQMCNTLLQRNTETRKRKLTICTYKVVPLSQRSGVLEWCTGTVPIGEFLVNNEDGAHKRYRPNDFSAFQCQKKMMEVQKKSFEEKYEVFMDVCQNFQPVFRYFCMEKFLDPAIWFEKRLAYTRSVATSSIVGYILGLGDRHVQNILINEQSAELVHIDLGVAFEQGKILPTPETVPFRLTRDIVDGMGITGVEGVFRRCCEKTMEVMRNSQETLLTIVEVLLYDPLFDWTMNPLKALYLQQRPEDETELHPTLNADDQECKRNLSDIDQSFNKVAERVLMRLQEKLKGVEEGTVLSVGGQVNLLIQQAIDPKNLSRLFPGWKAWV

| SMILES | IC50 (ATM) [pM] | IC50 (ATM-phosphorylated KAP1; [4]) [pM] | IC50 [3, 5] [pM] | IC50 (ATM-phosphorylated KAP1) [pM] | IC50 [3] [pM] | inhibitory effect on tumor volume and tumor weight, in words [1] | D 16 TGI [1] [%] | D 16 TV (MEAN ± SD) [1] | Tumor weight [1] [g] | Tumor weight inhibitory rate [1] [%] | D 17 TGI [2] [%] | D 17 TV (MEAN ± SD) [2] | inhibitory effect on ATM KAP phosphorylation, in words (ATM-phosphorylated KAP1) | inhibitory effect on LN18 cell proliferation, in words [3] |
| --- | --- | --- | --- | --- | --- | --- | --- | --- | --- | --- | --- | --- | --- | --- |
| Cn1c(=O)n2c3c4c(c(-c5ccc(OCCCN6CCCCC6)nc5)c(F)cc4ncc31)OCC2(C)C [Example A-6, 6-fluoro-2,10,10-trimethyl-7-(6-(3-(piperidin-1-yl)propoxy)pyridin-3-yl)-9,10-dihydro-8-oxa-2,4,10a-triazanaphtho[2,1,8-cde]azulen-1(2H)-one] | 370 |  |  |  |  | higher than those of AZD1390 | 100.4 | 163.8 ± 62.8***^### mm^3 | 0.12 ± 0.03 | 82.4 |  |  |  |  |
| CN(C)CCCOc1ccc(-c2c(F)cc3ncc4c5c3c2OCC(C)(C)n5c(=O)n4C)cn1 [Example A-46, 7-(6-(3-(dimethylamino)propoxy)pyridin-3-yl)-6-fluoro-2,10,10-trimethyl-9,10-dihydro-8-oxa-2,4,10a-triazanaphtho[2,1,8-cde]azulen-1(2H)-one] | 520 |  |  |  |  | higher than those of AZD1390 | 102.2 | 149.5 ± 67.4***^### mm^3 | 0.12 ± 0.06 | 82.0 |  |  |  |  |
| Cn1c(=O)n2c3c4c(c(-c5ccc(OCCCN6CCCCC6)nc5)ccc4ncc31)OCC21CC1 [Example A-68, 2-methyl-7-(6-(3-(piperidin-1-yl)propoxy)pyridin-3-yl)-2,9-dihydro-1H-spiro[8-oxa-2,4,10a-triazanaphtho[2,1,8-cde]azulene-10,1′-cyclopropan]-1-one] | 370 | 900 | 6830 |  |  |  |  |  |  |  | 83.9 | 285 ± 61***^# mm^3 |  |  |
| C[C@H]1COc2c(-c3ccc(OCCCN4CCC5(CC4)COC5)nc3)ccc3ncc4c(c23)n1c(=O)n4C [Example A-184, (S)-7-(6-(3-(2-oxa-7-azaspiro[3.5]nonan-7-yl)propoxy)pyridin-3-yl)-2,10-dimethyl-9,10-dihydro-8-oxa-2,4,10a-triazanaphtho[2,1,8-cde]azulen-1(2H)-one] | 250 | 330 | 3840 |  |  |  |  |  |  |  |  |  | higher than that of AZD1390 |  |

Now from value to molecule, other results behind:

| IC50 (ATM) [pM] | IC50 (ATM-phosphorylated KAP1; [4]) [pM] | IC50 [3, 5] [pM] | IC50 (ATM-phosphorylated KAP1) [pM] | IC50 [3] [pM] | SMILES | inhibitory effect on tumor volume and tumor weight, in words [1] | D 16 TGI [1] [%] | D 16 TV (MEAN ± SD) [1] | Tumor weight [1] [g] | Tumor weight inhibitory rate [1] [%] | D 17 TGI [2] [%] | D 17 TV (MEAN ± SD) [2] | inhibitory effect on ATM KAP phosphorylation, in words (ATM-phosphorylated KAP1) | inhibitory effect on LN18 cell proliferation, in words [3] |
| --- | --- | --- | --- | --- | --- | --- | --- | --- | --- | --- | --- | --- | --- | --- |
| 330 |  |  | 330 | 2710 | CC1CCN(CCCOc2ccc(-c3ccc4ncc5c6c4c3NC[C@H](C)n6c(=O)n5C)cn2)CC1 [Example A-211, (S)-2,10-dimethyl-7-(6-(3-(4-methylpiperidin-1-yl)propoxy)pyridin-3-yl)-2,8,9,10-tetrahydro-1H-2,4,8,10a-tetraazanaphtho[2,1,8-cde]azulen-1(2H)-one] |  |  |  |  |  |  |  | higher than that of AZD1390 | higher than that of AZD1390 |
| 370 |  |  | 370 | 1480 | C[C@H]1CNc2c(-c3ccc(OCCCN4CCC(C)(C)CC4)nc3)ccc3ncc4c(c23)n1c(=O)n4C [Example A-212, (S)-7-(6-(3-(4,4-dimethylpiperidin-1-yl)propoxy)pyridin-3-yl)-2,10-dimethyl-2,8,9,10-tetrahydro-1H-2,4,8,10a-tetraazanaphtho[2,1,8-cde]azulen-1(2H)-one] |  |  |  |  |  |  |  | higher than that of AZD1390 | higher than that of AZD1390 |
